# What was measured:
# [1] = Global physiological characteristics of diabetic rats (weights, plasma and wound fluid hormones, oxidative stress); type: in vivo, rat; conditions: for Plasma F2 Isoprostanes: index of oxidative stress
# Method: All animal procedures were performed in accordance with the NIH Guidance for the Care and Use of Laboratory Animals. The current study used the mildly hyperglycemic, non-obese Goto-Kakizaki (GK) spontaneously diabetic rats, produced by selective inbreeding of glucose-intolerant Wistar rats as a genetic model for type 2 diabetes. Weight-matched female Wistar rats (Kuwait University breeding colony) served as controls. All animals were maintained under standard conditions with 12 hours on/off light cycle, commercial diet, and water ad libitum. Rats destined for various experimental manipulations, including wounding, insulin sensitivity, and drug treatment, were initially matched with regard to body weight (e.g., 230 to 250 g), plasma levels of glucose, free fatty acids and insulin. These indices are commonly used to reflect the severity of the diabetic state.
# Cycling control rats in proestrus were used as a reference group. Similarly, the diabetic rats were also treated with PEG-sTNF-RI, a soluble long-lasting form of TNF-RI that neutralizes TNF-α action. […] All of the treatment regimens used with the diabetic rats were given for at least three weeks before wound initiation, and this form of treatment continued during the course of wound healing.
# Animals were sacrificed at 3 and 7 days post-wounding. An area that included the complete epithelial margins was excised, and the wounds were bisected and processed so that the mid-point of the wound was sectioned and compared between groups. The resulting specimens were either fixed in 4% paraformaldehyde in phosphate-sucrose buffer and analyzed histologically, or flash frozen in liquid nitrogen and stored at −80° C. prior to biochemical analysis, or embedded in Optimum Cutting Temperature (OCT) compound and immediately frozen in liquid nitrogen for immunofluorescence analysis. It is worthy of note that the number of wounds used for most of the aforementioned studies were in the range of 48 to 60 wounds per treatment. Some parameters related to sex hormones and oxidative stress were measured in serum or wound fluids, which were collected on day 7 post-wounding from subcutaneously inserted stainless steel mesh chambers.
# [2] = system: TGF-β1-Smad signaling pathway; experiment: TGF-β/Smad-dependent signaling in diabetic wounds; type: in vivo, rat; conditions: wounds from treated diabetic rats, day 7; for TGF-βRII expression: FIG. 3D; for phospho-Smad2: FIG. 3E; for Smad7 levels: FIG. 3F
# Method: Samples of the total cellular and nuclear extracts were subjected to protein determinations using the Bicinchoninic Acid Protein Assay Kit (Pierce). For western blotting, an equal volume of 2×SDS sample buffer was added, and the samples were denatured by boiling for 5 minutes. Proteins were applied to SDS-polyacrylamide gel electrophoresis (SDS-PAGE) and transferred to an Immobilon polyvinylidene difluoride membrane (BioRad). The membranes were blocked with tris buffered saline containing 0.05% Tween 20 and 5% skim milk, and then treated with a number of primary antibodies, including Smad2/p-Smad2 (Cell Signaling), Smad7 (Imgenex), and β3-integrin (Santa Cruz). Protein bands were visualized by chemiluminescence (Pierce), and band intensity was determined using Bio-Rad densitometer. Unless otherwise specified, β-actin was used to standardize the quantity of sample protein for all Western blotting analyses.
# wound macrophage markers = conditions: diabetic wounds
# NF-κB = NF-κB p65-DNA binding activity in wounds; type: in vivo, rat; conditions: wounds from treated diabetic rats; FIG. 5G
# Method: To assess protein expression and NF-κB activation, frozen liquid nitrogen powdered wounded tissues or serum starved RDFs/HDFs were homogenized on ice in a RIPA buffer (50 mM Tris pH 7.4, 150 mM NaCl, 10 mM EDTA, 2 mM sodium vanadate, 150 mM sodium fluoride, 0.5% sodium deoxycholate, 1% Triton X-100, and a cocktail of protease inhibitors) for total cellular proteins, or with a hypotonic buffer A (10 mM HEPES pH 7.9, 10 mM KCl, 2 mM MgCl2, 0.1 mM EDTA, 1.0 mM DTT, 0.5 mM PMSF, 20 mM NaF, 1 mM sodium orthovanadate and a cocktail of protease inhibitors) for the nuclear protein extraction. […] Similarly, the hypotonic buffer-dependent homogenates (500 μl) were incubated on ice for 20 minutes, after which 50 μl of 10% NP-40 was added. The mixture was vortexed and centrifuged (5000×g, 1 min, 4° C.). […]
# A quantitative analysis of p65-DNA binding activity was performed on the nuclear protein extracts using the ELISA-based TransAM NFκB Transcription Factor Assay Kit (Active Motif) according to the manufacturer's instruction. […] The activated transcription factor, specifically bound to the immobilized oligonucleotide, was detected using an antibody directed against NF-κB and a secondary antibody conjugated to horseradish peroxidase. The developing solution was then added, and the OD (450-665 mm) was measured using a microplate reader (Thermo Scientific). Results were expressed as % of control.
# [3] = system: rheumatoid arthritis in rat models; conditions: subcutaneous administration, dose of 0.3 mg/kg; cited from earlier work
# GK diabetic rats [4] = experiment: Insulin sensitivity clamp (Rapid Insulin Sensitivity Test) in female diabetic rats
# GK diabetic rats [5] = experiment: Full-thickness excisional wound healing in GK diabetic rats (closure, re-epithelialization, ECM deposition); conditions: diabetic wounds
# [6] = GK diabetic rats treated, plasma, mean±SEM
# [7] = GK diabetic rats treated, wound fluid day 7 post-wounding, mean±SEM
# [8] = female GK diabetic rats treated, mean±SEM
compound,measurement,setting,value
"C[C@]12CC[C@@H]3c4ccc(O)cc4CC[C@H]3[C@@H]1CC[C@@H]2O [E2, β-estradiol]",Weight (g) Uterus,"[1]; GK diabetic rats treated, mean±SEM",0.41 ± 0.04 g
same,Plasma F2 Isoprostanes,[1]; [6],47 ± 6.6 pg/mL
same,Plasma Testosterone,[1]; [6],849 ± 85 pg/mL
same,Wound fluid F2 Isoprostanes,[1]; [7],43 ± 4.4 pg/mL
same,Wound fluid Testosterone,[1]; [7],456 ± 47 pg/mL
same,"diabetes-related abnormalities (testosterone, F2 isoprostanes, uterine weights, plasma and wound E2 levels)","[1]; GK diabetic rats, Table 1",Most of the aforementioned abnormalities were normalized
same,TGF-βRII expression,[2],augmented
same,phospho-Smad2,[2],augmented
same,Smad7 levels,[2],decreased
same,"up-regulation in M1 macrophage-derived markers, together with the resolution of inflammation within the diabetic wound microenvironment",wound macrophage markers; FIG. 5C-E,normalized
same,diabetes-related decrease in the expression of wound M2 macrophage phenotype,"wound macrophage markers; FIGS. 2F, 2G, 3A, 3B, 5F",partial reversal
TNFR1: soluble pegylated long-lasting form of TNF-RI (Amgen) that neutralizes TNF-α action,Plasma F2 Isoprostanes,[1]; [6],69 ± 8.4 pg/mL
same,Wound fluid F2 Isoprostanes,[1]; [7],59 ± 5.2 pg/mL
same,TGF-βRII expression,[2],augmented
same,phospho-Smad2,[2],augmented
same,Smad7 levels,[2],decreased
same,NF-κB activity,NF-κB,significant decrease
same,pro-resolving/M2 polarizing effect,wound macrophage markers,recapitulated
same,inflammatory reaction of rheumatoid arthritis,[3],appears to limit the inflammatory reaction
same,effect on carbohydrate tolerance,"GK diabetic rats [4]; diabetic animals, Table 2",favorable effect
same,hyperinsulinemic state,"GK diabetic rats [4]; diabetic animals, Table 2",partially ameliorated
same,target tissue sensitivity to insulin (increase in glucose infusion rate),"GK diabetic rats [4]; diabetic animals, Table 2",significantly improved
same,GIR: Glucose infusion rate,"GK diabetic rats [4]; female GK diabetic rats treated, clamp, mean±SEM",18.53 ± 1.49 mg/min/kg body wt
same,FBG: Fasting blood glucose,GK diabetic rats [4]; [8],125 ± 17 mg/dL
same,FPI: Fasting plasma insulin,GK diabetic rats [4]; [8],0.68 ± 0.05 ng/mL
same,PCPI: Post clamp plasma insulin,GK diabetic rats [4]; [8],4.61 ± 0.4 ng/mL
same,deposition of ECM,GK diabetic rats [5]; FIG. 2A-D,significant improvement
same,"healing process, at the macroscopic and microscopic levels",GK diabetic rats [5]; FIGS. 1A and B,significant improvement
